Laboratory results taken from paper PMC4721142, “Randomized controlled studies on the efficacy of antiarthritic agents in inhibiting cartilage degeneration and pain associated with progression of osteoarthritis in the rat” (Arthritis Research & Therapy, 2016).
Values joined by “and” are separate entries in the source; they are usually repeats but may differ in a detail not shown here. Equal values may be shown once.

What was measured:
MMT/MCLT rat model of OA = experiment: MMT/MCLT trial 1 weight bearing (daily morphine 10 mg/kg, tacrolimus 0.3 or 0.6 mg/kg, fluocinolone 5 or 10 μg/kg, clonidine 100 μg/kg, alendronate 10 μg/kg i.p.; curcumin, withaferin 50 mg/kg p.o.); format: in vivo
Experimental: Weight bearing (WB; incapacitance) was measured five times per day, once per week, using a Linton incapacitance meter (Stoelting Co., Wood Dale, IL, USA). Rats were acclimated to the meter before study initiation, and, similarly, immediately before WB, the animals were placed in the meter and allowed to acclimate for 2–5 minutes. Each hind paw was placed on a separate force plate so that the force exerted by each side could be averaged over a 5-second interval, and the mean of three readings was taken for each data point. Right paw force was compared with that on the left side for each group to confirm that animals were displaying incapacitance and/or pain behavior. Differences in force (left minus right) and right paw force as a percentage of the total force exerted by both paws were determined and compared between groups.
Following isoflurane anesthesia, the medial collateral ligament was transected just below its attachment to the meniscus in the right knee. The meniscus was cut at its narrowest point away from the ossicles so as not to damage the tibial surface and to ensure that the anterior and posterior meniscus halves were freely movable. […] In trial 2, drugs were administered IA weekly beginning 1 week following surgery. Three weeks postsurgery, animals were humanely killed and their right knees were collected for histopathology. All studies were conducted in accordance with the International Association for the Study of Pain Guidelines and were approved by the Bolder BioPATH IACUC (Boulder, CO, USA) in compliance with regulations before study initiation (IACUC protocol BBP03-006). Those running the studies were blinded to the treatments. See Additional file 1 for further details.
Isoflurane and the right knee area prepared for surgery. A skin incision was made over the medial aspect of the knee and the medial collateral ligament was exposed by blunt dissection and then transected. The medial meniscus was cut through the full thickness to simulate a complete tear and the skin was then closed with suture.
All pharmaceutical agents were prepared and stored as recommended by the supplier. Daily drug preparations were made fresh from stock solutions. […]
In Trial 2 drugs were […]
administered IA weekly beginning one week following surgery. […]
were delivered by gavage and were prepared in 0.3% Methyl Cellulose.
WB was measured five times a day, once a week, using a Linton incapacitance meter (Stoelting Co.) to assess pain behavior. Rats were acclimated to the incapacitance meter prior to study initiation.
Similarly, immediately prior to WB animals were placed in the incapacitance meter and allowed to acclimate for 2-5 minutes. Each hind paw was placed on a separate force plate so that the force exerted by each side could be averaged over a 5 second interval and the mean of three readings taken for each data point. Right paw force was compared to left for each group to confirm that animals were displaying incapacitance / pain behavior. Difference in force (left minus right) and right paw force as a percentage of the total force exerted by both paws were determined and compared between groups. Three weeks after surgery, animals were humanely euthanized and right knees collected for histopathology evaluation.
Figure 2. MMT/MCLT Trial Timeline […]
MMT/MCLT Dosing (once/day)
The study design and animal usage was approved by Bolder BioPATH’s Institutional Animal Care and Use Committee (IACUC) for compliance with regulations prior to study initiation (IACUC […]
Labs. Animals were identified by a distinct mark at the base of the tail delineating group and animal number. After randomization, all cages were labeled with protocol number, group numbers, and animal numbers with appropriate color-coding (see protocol).

MIA rat model of OA = experiment: MIA trial 3 histopathology (same doses as dRS test); format: in vivo; set-up: key to Cartilage matrix damage score: 5-point cartilage matrix score; key to Mean of all cartilage loss: approximate % loss, mean of four articular surfaces; Subchondral bone sclerosis: scale not given here; settings: group mean
From the text: For MIA trial 3, joints were fixed and toluidine blue–stained sections of the rat knees were comprehensively analyzed from test and control subjects as detailed in Additional file 1. Briefly, a 5-point cartilage matrix score was derived based upon (1) approximate percentage of total loss of articular chondrocytes for each of four articular surfaces, (2) estimated proteoglycan loss (via Safranin O staining), and (3) loss of interstitial matrix. Chondrocyte necrosis and proteolytic degeneration of the femurs were scored on a 5-point scale as in trial 1. A femoral cartilage degeneration score and a three-zone sum of the tibial cartilage degeneration scores (mean of three levels) were also summed to create a total cartilage degeneration score. The mean osteophyte score for each joint was added to this value to create a total joint score with matrix. Other parameters assessed included synovial membrane inflammation and proliferation. Representative images from each group were also collected (see, e.g., Fig. 4 and Additional file 1: Fig. S55, Trial 3). […]
Hawes, APS, Pathologist). Treatments were masked during the assessment. Chondrocyte necrosis and proteolytic degeneration of the femurs were scored on a 5 point scale with 0 = None; 1 = <10%; […]
For the histopathology of the MIA model in Trial 3, completed by Bolder BioPATH (and Dr.
Bendele), a tolouidine blue stained slide containing both halves of the joint was comprehensively analyzed from test and control subjects. Approximate % of total loss of articular chondrocytes, loss of proteoglycan and loss of collagenous matrix were determined for each articular surface (medial tibial plateau (MTP), lateral tibial plateau (LTP), medial femoral condyle (MFC), and lateral femoral condyle (LFC). Chondrocyte loss was quantified by estimating the area of cartilage in which there were no apparently viable chondrocytes and proteoglycan loss was quantified by estimating differences in intensity of toluidine blue matrix staining. Loss of interstitial matrix was an indication of disruption and diminished type II collagen. Based on the mean % loss for the four surfaces in these parameters, a five point matrix score was utilized with the subchondral bone resorption, subchondral bone sclerosis and osteophyte scores to achieve a total joint score. […]
[…] steps, stained with toluidine blue (with a right and left halve per section), and analyzed for cartilage degeneration, proteoglycan loss, collagen damage, and osteophyte formation. Results were averaged across the 3 sections for an overall semi-quantitative score. Regional differences across the tibial plateau were taken into consideration by dividing each section into 3 zones delineated using an ocular micrometer (outside, middle, and inside). Scores were based on the percentage of area affected within the zone.
Cartilage degeneration in the tibia was scored on a five point scale for each zone, collagen damage across the medial tibial plateau was measured by total width for each grade damage. Cartilage degeneration in the tibia was scored none to severe (numerical values 0-5) for each zone (area defined by micrometer) using the following criteria: […]

Row | Compound | Weight bearing, hours with significant effect (MMT/MCLT rat model of OA; day 7, low or only dose) [h] | Bone resorption percent, LFC (MIA rat model of OA; i.a. weekly) [%] | Bone resorption percent, LTP (MIA rat model of OA; i.a. weekly) [%] | Bone resorption percent, MFC (MIA rat model of OA; i.a. weekly) [%] | Bone resorption percent, MTP (MIA rat model of OA; i.a. weekly) [%] | Bone resorption percent, mean (MIA rat model of OA; i.a. weekly) [%] | Bone resorption score (MIA rat model of OA; i.a. weekly) | Cartilage matrix damage score (MIA rat model of OA; i.a. weekly) | Mean of all cartilage loss (MIA rat model of OA; i.a. weekly) | Osteophyte measure (MIA rat model of OA; i.a. weekly) [µm] | Osteophyte score (MIA rat model of OA; i.a. weekly) | Subchondral bone sclerosis (MIA rat model of OA; i.a. weekly) | Total joint score w/o matrix (MIA rat model of OA; i.a. weekly) | Total joint score with matrix (MIA rat model of OA; i.a. weekly) | Weight bearing, hours with significant effect (MMT/MCLT rat model of OA; day 14, low or only dose) | Weight bearing, hours with significant effect (MMT/MCLT rat model of OA; day 21, low or only dose) [h] | further results
1 | Clc1cccc(Cl)c1N=C1NCCN1 [Clonidine] | 1 | 51 | 61 | 47 | 65 | 56 | 3.0 | 3.0 and 3.0 ± 1.1 | 47.8 | 560.0 | 2.7 | 0.0 | 5.7 | 8.7 and 8.7 ± 3.3 | – | – | Bone resorption percent, LFC (MIA rat model of OA; clonidine 100 μg/kg s.c.): 72%; Bone resorption percent, LTP (MIA rat model of OA; clonidine 100 μg/kg s.c.): 87%; Bone resorption percent, MFC (MIA rat model of OA; clonidine 100 μg/kg s.c.): 67%; Bone resorption percent, MTP (MIA rat model of OA; clonidine 100 μg/kg s.c.): 83%; Bone resorption percent, mean (MIA rat model of OA; clonidine 100 μg/kg s.c.): 77%; Bone resorption score (MIA rat model of OA; clonidine 100 μg/kg s.c.): 4.3; Cartilage matrix damage score (MIA rat model of OA; clonidine 100 μg/kg s.c.): 3.7 and 3.7 ± 0.9; Mean of all cartilage loss (MIA rat model of OA; clonidine 100 μg/kg s.c.): 64.9; Osteophyte measure (MIA rat model of OA; clonidine 100 μg/kg s.c.): 560.0 µm; Osteophyte score (MIA rat model of OA; clonidine 100 μg/kg s.c.): 2.7; Subchondral bone sclerosis (MIA rat model of OA; clonidine 100 μg/kg s.c.): 0.0; Total joint score w/o matrix (MIA rat model of OA; clonidine 100 μg/kg s.c.): 7.0; Total joint score with matrix (MIA rat model of OA; clonidine 100 μg/kg s.c.): 10.7 and 10.7 ± 2.8
2 | CC1(C)O[C@@H]2C[C@H]3[C@@H]4C[C@H](F)C5=CC(=O)C=C[C@]5(C)[C@@]4(F)[C@@H](O)C[C@]3(C)[C@]2(C(=O)CO)O1 [Fluocinolone, Fluocinolone Acetonide] | 5 | 67 | 67 | 72 | 67 | 68 | 3.7 | 3.3 and 3.3 ± 1.2 | 53.7 | 706.7 | 3.3 | 0.0 | 7.0 | 10.3 and 10.3 ± 2.7 | 1,3 h | 1 | –
3 | C=CC[C@@H]1/C=C(\C)C[C@H](C)C[C@H](OC)[C@H]2O[C@@](O)(C(=O)C(=O)N3CCCC[C@H]3C(=O)O[C@H](/C(C)=C/[C@@H]3CC[C@@H](O)[C@H](OC)C3)[C@H](C)[C@@H](O)CC1=O)[C@H](C)C[C@@H]2OC [Tacrolimus] | 3 | 100 | 100 | 100 | 100 | 100 | 5.0 | 5.0 and 5.0 ± 0.0 | 92.5 | 666.7 | 3.3 | 0.0 | 8.3 | 13.3 and 13.3 ± 1.7 | – | 3 | Weight bearing, hours with significant effect (MMT/MCLT rat model of OA; day 14, tacrolimus 0.6 mg/kg, fluocinolone 0.010 mg/kg): 1 h
4 | COc1ccc(C=CC(=O)Nc2ccccc2C(=O)O)cc1OC [Tranilast, N-(3′,4′-dimethoxycinnamoyl)anthranilic acid] | – | 100 | 100 | 100 | 97 | 99 | 5.0 | 5.0 and 5.0 ± 0.0 | 89.7 | 893.3 | 4.3 | 0.0 | 9.3 | 14.3 and 14.3 ± 0.3 | – | – | –
5 | CC(C)(C)CC(=O)OCC(=O)[C@@]12OC(C)(C)O[C@@H]1C[C@H]1[C@@H]3CCC4=CC(=O)C=C[C@]4(C)[C@@]3(F)[C@@H](O)C[C@@]12C [Triamcinolone hexacetonide] | – | 35 | 34 | 35 | 32 | 34 | 2.3 | 3.3 ± 0.9 | 61.1 | 453.3 | 2.0 | 0.7 | 5.0 | 8.3 ± 2.6 | – | – | Cartilage matrix damage score (MIA rat model of OA; i.a. weekly, listed as TH): 3.3; Total joint score with matrix (MIA rat model of OA; i.a. weekly, listed as Trimacinolone Hexacetonide): 8.3
6 | CC1=C(CO)C(=O)O[C@@H]([C@@H](C)[C@H]2CC[C@H]3[C@@H]4C[C@H]5O[C@]56[C@@H](O)C=CC(=O)[C@]6(C)[C@H]4CC[C@]23C)C1 [Withaferin A] | 1 | – | – | – | – | – | – | – | – | – | – | – | – | – | 3 h | – | –
